Tested on: MSH3
Assay: QPCR assay for levels of MSH3 upon compound treatment in HEK293T or AD293 cells (fold-change of MSH3 transcript, EC50 of MSH3 downregulation; total MSH3 exons 13/14, exons 20/21; Table 8)
Format: cell-based
Conditions: Homo sapiens, fold-change of the MSH3 transcript, normalized to GAPDH; for mrna remaining at 1 µM: 1 μM compound; for mrna remaining at 10 µM: 10 μM compound
How it was run: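 HEK293T or AD293 cells were treated at 1 μM and […]; RNA-to-cDNA qPCR used TaqMan assays for total MSH3 (exons 13/14, exons 20/21) and poison-exon junctions exon 13/PE14A and exon 20/PE21A. Transcript levels were normalized to GAPDH.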

## CN(C)C1CN(c2ccc(N3Cc4c(F)cc(-c5nn(C)nc5Cl)cc4C3=O)nn2)C1 [Compound 647, 6-(5-chloro-2-methyl-2H-1,2,3-triazol-4-yl)-2-(6-(3-(dimethylamino)azetidin-1-yl)pyridazin-3-yl)-4-fluoroisoindolin-1-one]
  mrna remaining at 1 µM: 119%
  mrna remaining at 10 µM: 86%

## Cc1nn(C)nc1-c1cc(F)c2c(c1)C(=O)N(c1ccc(N3CC[C@@H](NC(C)(C)C)C3)nn1)C2 [Compound 648, (R)-2-(6-(3-(tert-butylamino)pyrrolidin-1-yl)pyridazin-3-yl)-6-(2,5-dimethyl-2H-1,2,3-triazol-4-yl)-4-fluoroisoindolin-1-one]
  mrna remaining at 1 µM: 113%
  mrna remaining at 10 µM: 87%

## CC(C)(O)Cn1cc(-c2cc(F)c3c(c2)C(=O)N(c2ccc(OC4CC(C)(C)NC(C)(C)C4)nn2)C3)c(Cl)n1 [Compound 649, 6-(3-chloro-1-(2-hydroxy-2-methylpropyl)-1H-pyrazol-4-yl)-4-fluoro-2-(6-((2,2,6,6-tetramethylpiperidin-4-yl)oxy)pyridazin-3-yl)isoindolin-1-one]
  mrna remaining at 1 µM: 106%
  mrna remaining at 10 µM: 63%

## Cc1nn(C)nc1-c1cc(F)c2c(c1)C(=O)N(c1ccc(N3CCNC4(CC4)C3)nn1)C2 [Compound 650, 2-(6-(4,7-diazaspiro[2.5]octan-7-yl)pyridazin-3-yl)-6-(2,5-dimethyl-2H-1,2,3-triazol-4-yl)-4-fluoroisoindolin-1-one]
  mrna remaining at 1 µM: 97%
  mrna remaining at 10 µM: 75%

## Cc1nn(C)nc1-c1cc(F)c2c(c1)C(=O)N(c1ccc(N3CCC4CCC(C3)N4)nn1)C2 (centres unmarked) [Compound 651, 2-(6-(3,9-diazabicyclo[4.2.1]nonan-3-yl)pyridazin-3-yl)-6-(2,5-dimethyl-2H-1,2,3-triazol-4-yl)-4-fluoroisoindolin-1-one]
  mrna remaining at 1 µM: 96%
  mrna remaining at 10 µM: 60%

## Cn1nc(Cl)c(-c2cc(F)c3c(c2)C(=O)N(c2ccc(N4CCC(NC5CC5)C4)nn2)C3)n1 (centres unmarked) [Compound 652, 6-(5-chloro-2-methyl-2H-1,2,3-triazol-4-yl)-2-(6-(3-(cyclopropylamino)pyrrolidin-1-yl)pyridazin-3-yl)-4-fluoroisoindolin-1-one]
  mrna remaining at 1 µM: 103%
  mrna remaining at 10 µM: 79%

## Cn1nc(Cl)c(-c2cc(F)c3c(c2)C(=O)N(c2ccc(N4CC5CCC(C4)N5)nn2)C3)n1 [Compound 653, 2-(6-(3,8-diazabicyclo[3.2.1]octan-3-yl)pyridazin-3-yl)-6-(5-chloro-2-methyl-2H-1,2,3-triazol-4-yl)-4-fluoroisoindolin-1-one]
  mrna remaining at 1 µM: 93%
  mrna remaining at 10 µM: 27%

## CCN1CC2CN(c3ccc(N4Cc5c(F)cc(-c6nn(C)nc6Cl)cc5C4=O)nn3)CC2C1 (centres unmarked) [Compound 654, 6-(5-chloro-2-methyl-2H-1,2,3-triazol-4-yl)-2-(6-(5-ethylhexahydropyrrolo[3,4-c]pyrrol-2(1H)-yl)pyridazin-3-yl)-4-fluoroisoindolin-1-one]
  mrna remaining at 1 µM: 90%
  mrna remaining at 10 µM: 61%

## Cn1nc(Cl)c(-c2cc(F)c3c(c2)C(=O)N(c2ccc(N4CC5CC(C4)N5)nn2)C3)n1 [Compound 655, 2-(6-(3,6-diazabicyclo[3.1.1]heptan-3-yl)pyridazin-3-yl)-6-(5-chloro-2-methyl-2H-1,2,3-triazol-4-yl)-4-fluoroisoindolin-1-one]
  mrna remaining at 1 µM: 115%
  mrna remaining at 10 µM: 48%

## Cn1nc(Cl)c(-c2cc(F)c3c(c2)C(=O)N(c2ccc(N4CC[C@@H](NC(C)(C)C)C4)nn2)C3)n1 [Compound 656, (R)-2-(6-(3-(tert-butylamino)pyrrolidin-1-yl)pyridazin-3-yl)-6-(5-chloro-2-methyl-2H-1,2,3-triazol-4-yl)-4-fluoroisoindolin-1-one]
  mrna remaining at 1 µM: 70%
  mrna remaining at 10 µM: 43%

Source: patent US20260315464A1, “COMPOSITIONS, METHODS, AND SYSTEMS FOR MODULATING SPLICING OF MSH3” (REVIR THERAPEUTICS, INC., priority 2023, published 2026)
